Columns and labels:
severe diffuse ARDS = test: Case observation: ARDS patient sedated with clonidine under spontaneous ventilation-pressure support and high PEEP; assay type: in vivo, human
sedation = settings: continuous infusion for sedation; cited from earlier work

Q: Which “P/F (PaO2/FiO2)” value (severe diffuse ARDS; human, in vivo) does the source give for `Clc1cccc(Cl)c1N=C1NCCN1` [clonidine] here?
A: 262

Q: And the Ramsay score (severe diffuse ARDS; under clonidine 1 μg·kg-1·h-1, progressively lowered from Ramsay 5-6, patient communicated with family on D5)?
A: 2-3

Q: For `Cc1cccc([C@H](C)c2cnc[nH]2)c1C` [dexmedetomidine], which “dosage at which ceiling effect is observed” value (sedation) is on record?
A: 1.5 µg/kg/h

Q: Which “Superior vena cava O2 saturation” value (severe diffuse ARDS; at all intervals, dobutamine D3 to D6, 2 then 1 μg·kg-1·min-1) does the source give for `CC(CCc1ccc(O)cc1)NCCc1ccc(O)c(O)c1` (centres unmarked) [dobutamine] here?
A: > 70%

Q: For `NC[C@H](O)c1ccc(O)c(O)c1` [noradrenaline], which mean arterial pressure (severe diffuse ARDS; noradrenaline 0.45 μg·kg-1·min-1 lowered to 0.01 μg·kg-1·min-1, forced diuresis) is on record?
A: > 100 mm Hg
